# Measured values: US20250339409A1, “USES OF PAN BET INHIBITORS” (VYNE THERAPEUTICS INC., priority 2021, published 2025)
# Where “and” joins values, the source holds several entries; their conditions need not be identical. Identical values can stand only once. Marks after values point to notes of the source that are not given here.
# Tested on: anti collagen antibodies induced arthritis (ACAIA)
# Assay: Anti collagen antibodies induced arthritis (ACAIA) in mice, intra-articular treatment: paw thickness, arthritis clinical score, body weight;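 also: mouse arthritis induced by IV anti-collagen mAb on day 0 plus IP LPS on day 4, with body weight, caliper paw thickness and 0-4 paw score tracked against a day 0 baseline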
# Details: for Clinical score of treated leg (Avg.) / Paw thickness Avg. Delta untreated -treated / Paw thickness of treated leg (Avg.) / Paw thickness of untreated leg (Avg.) / Percent change of weight per day (Av) / Percent change of weight per day (individual animal) / Δ clinical score untreated -treated, Avg. Delta: 10 mg/kg IA (Group 2)
# [1] = BETi1 0.01 mg/kg IA (Group 5), Av
# [2] = BETi1 0.01 mg/kg IA (Group 5), individual animals, 0.01 mg/kg
# [3] = BETi1 0.1 mg/kg IA (Group 4), Av
smiles,measurement,setting,value
Cn1cc(-c2cccc(O)c2Oc2ccccc2)c2cc[nH]c2c1=O [BETi1],Clinical score of treated leg (Avg.),Baseline,0.00 points
same,Paw thickness Avg. Delta untreated -treated,Baseline,−0.05 mm
same,Paw thickness of treated leg (Avg.),Baseline,2.12 mm
same,Paw thickness of untreated leg (Avg.),Baseline,2.07 mm
same,Percent change of weight per day (Av),Baseline,100.00%
same,Percent change of weight per day (individual animal),Baseline,100%
same,"Δ clinical score untreated -treated, Avg. Delta",Baseline,0.00 points
same,Clinical score of treated leg (Avg.),Day 3,0.00 points
same,Paw thickness Avg. Delta untreated -treated,Day 3,−0.01 mm
same,Paw thickness of treated leg (Avg.),Day 3,2.16 mm
same,Paw thickness of untreated leg (Avg.),Day 3,2.15 mm
same,Percent change of weight per day (Av),Day 3,100.21%
same,Percent change of weight per day (individual animal),Day 3,99.5% and 99.54% and 102.4038% and 101.3825% and 100.4673% and 98.1982% and 100%
same,"Δ clinical score untreated -treated, Avg. Delta",Day 3,0.00 points
same,Clinical score of treated leg (Avg.),Day 4,0.00 points
same,Paw thickness Avg. Delta untreated -treated,Day 4,−0.04 mm
same,Paw thickness of treated leg (Avg.),Day 4,2.24 mm
same,Paw thickness of untreated leg (Avg.),Day 4,2.20 mm
same,Percent change of weight per day (Av),Day 4,100.95%
same,Percent change of weight per day (individual animal),Day 4,100% and 99.07% and 102.8846% and 103.2258% and 100.9346% and 98.65% and 101.8779%
same,"Δ clinical score untreated -treated, Avg. Delta",Day 4,0.00 points
same,Clinical score of treated leg (Avg.),Day 5,0.00 points
same,Paw thickness Avg. Delta untreated -treated,Day 5,0.01 mm
same,Paw thickness of treated leg (Avg.),Day 5,2.16 mm
same,Paw thickness of untreated leg (Avg.),Day 5,2.17 mm
same,Percent change of weight per day (Av),Day 5,92.17%
same,Percent change of weight per day (individual animal),Day 5,91.58% and 93.06% and 92.79% and 94.86% and 89.64% and 91.08%
same,"Δ clinical score untreated -treated, Avg. Delta",Day 5,0.00 points
same,Clinical score of treated leg (Avg.),Day 6,0.00* points
same,Paw thickness Avg. Delta untreated -treated,Day 6,0.34*** mm
same,Paw thickness of treated leg (Avg.),Day 6,2.17*** mm
same,Paw thickness of untreated leg (Avg.),Day 6,2.51 mm
same,Percent change of weight per day (Av),Day 6,92.02%
same,Percent change of weight per day (individual animal),Day 6,93.56% and 91.67% and 92.31% and 91.1215% and 91.89% and 91.5493%
same,Clinical score of treated leg (Avg.),Day 7,0.50* points
same,Paw thickness Avg. Delta untreated -treated,Day 7,0.77*** mm
same,Paw thickness of treated leg (Avg.),Day 7,2.23** mm
same,Paw thickness of untreated leg (Avg.),Day 7,3.00 mm
same,Percent change of weight per day (Av),Day 7,91.86%
same,Percent change of weight per day (individual animal),Day 7,92.57% and 89.81% and 93.75% and 91.59% and 91.44% and 92.02%
same,Clinical score of treated leg (Avg.),Day 8,0.83 points
same,Paw thickness Avg. Delta untreated -treated,Day 8,1.04*** mm
same,Paw thickness of treated leg (Avg.),Day 8,2.18** mm
same,Paw thickness of untreated leg (Avg.),Day 8,3.22 mm
same,Percent change of weight per day (Av),Day 8,90.62%
same,Percent change of weight per day (individual animal),Day 8,92.08% and 88.89% and 94.23% and 87.85% and 90.99% and 89.67%
same,Clinical score of treated leg (Avg.),Day 10,0.17* points
same,Paw thickness Avg. Delta untreated -treated,Day 10,1.27 mm
same,Paw thickness of treated leg (Avg.),Day 10,2.14** mm
same,Paw thickness of untreated leg (Avg.),Day 10,3.41 mm
same,Percent change of weight per day (Av),Day 10,91.54%
same,Percent change of weight per day (individual animal),Day 10,90.59% and 88.89% and 95.19% and 91.59% and 92.34% and 90.61%
same,Clinical score of treated leg (Avg.),Day 12,0.67 points
same,Paw thickness Avg. Delta untreated -treated,Day 12,1.32 mm
same,Paw thickness of treated leg (Avg.),Day 12,2.17 mm
same,Paw thickness of untreated leg (Avg.),Day 12,3.48 mm
same,Percent change of weight per day (Av),Day 12,94.92%
same,Percent change of weight per day (individual animal),Day 12,95.54% and 93.98% and 98.08% and 92.99% and 95.05% and 93.9%
same,"Δ clinical score untreated -treated, Avg. Delta",Day 12,2.67 points
same,"Δ clinical score untreated -treated, Avg. Delta","Day 6, * p < 0.05 vs. Vehicle",0.83* points
same,"Δ clinical score untreated -treated, Avg. Delta","Day 7, * p < 0.05 vs. Vehicle",1.33* points
same,"Δ clinical score untreated -treated, Avg. Delta","Day 8, * p < 0.05 vs. Vehicle",2.17* points
same,"Δ clinical score untreated -treated, Avg. Delta","Day 10, * p < 0.05 vs. Vehicle",2.83* points
same,"reduction of arthritis score, treated vs untreated paw","10 mg/kg IA, day 12",79.9%
same,"reduction of paw thickness, treated vs untreated paw","10 mg/kg IA, day 12",37.6%
same,"Weight per day, Baseline",[1],20.6 g
same,"Weight per day, Day 3",[1],20.4 g
same,"Weight per day, Day 4",[1],19.9 g
same,"Weight per day, Day 5",[1],18.5 g
same,"Weight per day, Day 6",[1],18.1 g
same,"Weight per day, Day 7",[1],18.9 g
same,"Weight per day, Day 8",[1],18.5 g
same,"Weight per day, Day 10",[1],18.4 g
same,"Weight per day, Day 12",[1],19.1 g
same,"Weight per day, Baseline",[2],21 g (2×) and 20.9 g and 21.5 g and 21.4 g and 19.4 g and 18.7 g
same,"Weight per day, Day 3",[2],20.8 g and 20.6 g and 21.6 g and 20.9 g and 19.3 g and 18.8 g and 21 g
same,"Weight per day, Day 4",[2],21.1 g and 20.8 g and 20.9 g and 21.6 g and 17.4 g and 17.8 g and 19.6 g
same,"Weight per day, Day 5",[2],19.5 g and 18.7 g and 19.1 g and 20.2 g and 16.6 g and 16.8 g and 18.4 g
same,"Weight per day, Day 6",[2],19.1 g and 19 g and 18.6 g and 19.9 g and 15.6 g and 16.5 g and 18.1 g
same,"Weight per day, Day 7",[2],19.4 g and 19.3 g and 18.9 g and 20 g and 16 g and 19.9 g and 18.5 g
same,"Weight per day, Day 8",[2],19.3 g and 19.7 g and 18.9 g and 20.1 g and 16 g and 16.9 g and 18.5 g
same,"Weight per day, Day 10",[2],19.6 g and 19.5 g (2×) and 18.3 g and 16.2 g and 17.4 g and 18.6 g
same,"Weight per day, Day 12",[2],19.9 g and 20 g (2×) and 19.1 g and 16.9 g and 18.2 g and 19.3 g
same,"Weight per day, Baseline",[3],20.4 g
same,"Weight per day, Day 3",[3],20.6 g
same,"Weight per day, Day 4",[3],20.3 g
